Assay results reported in patent US12508241B2, “Peripheral nerve agonists suppress inflammation” (University of Pittsburgh—Of the Commonwealth System of …, priority 2019, dated 2025).

Tests used:
MRGPRD = MRGPRD (Homo sapiens, UniProt Q8TDS7); conditions: cited from earlier work; for activity as MRGPRD agonists relative to β-ala: compared with β-ala
wound healing pathways = conditions: 100 mM injected twice daily for 2 days, WT C57BL/6; compared with published tape stripping RNAseq data
Procedure: Wild type C57BL/6 mice were injected with 100 mM β-alanine or vehicle twice daily for 2 days. Skin at the treated sites were harvested and mRNA was obtained and subjected to RNAseq. Genes with increased gene expression in the β-alanine treated group were anayzed by pathway analysis.

mast cell degranulation [1] = assay: 48/80-mediated mast cell degranulation, Evan's blue dye in the skin, i.d. β-alanine pre-treatment; format: in vivo, C57BL/6 mice
Procedure: Compound 48/80, the condensation product of N-methyl p-methoxyphenethylamine and formaldehyde, is a well-known chemical that induces rapid mast cell degranulation and associated edema. The degree of edema in the skin is measured by the amount of Evan's blue dye in the skin. […] In mice that lack MRGPRD neurons, β-alanine had no effect on 48/80's ability to activate mast cells (compare columns 5 and 6). This is a specificity control since the neurons that express the receptor for β-alanine are absent.

[2] = system: DNFB contact hypersensitivity; conditions: MRGPRD-DTR mice treated with DT (MRGPRD-ablated), same regimen
Procedure: Referring to FIG. 2, cohorts of C57BL/6 mice (n=5) were either pre-treated by i.d. injection of b-alanine (WT+b-ala) or vehicle (WT) on the abdomen for 2 days followed by sensitization at the same site with 0.2% DNFB (a chemical sensitizer). Five days later 0.2% DNFB was applied to the ear. The increased degree of ear swelling on the indicated day compared to ear thickness prior to application of DNFB was measured. Increased ear thickness was employed a surrogate for the amount of immune response to DNFB was measured. As a specificity control, MRGPRD-DTR mice treated with DT to ablate MRGPRD-expressing neurons (labeled MRGPRD in FIG. DD), and were treated similarly (MRGPRD and MRGPRD+b-ala).

mast cell degranulation [3] = conditions: 5% topical, shaved flank skin twice daily for 2 days, then i.d. compound 48/80, read ten minutes later; figure values in μg per g of tissue, p<0.01
Procedure: Mice were then given Evans' blue dye i.v. followed by an intradermal injection of compound 48/80. Ten minutes later, the amount of Evans' blue dye present in the skin (μg·g^−1 of tissue) as an indication of the extent of mast cell degranulation was determined by skin biopsy, enzymatic digestion, and […] evaluation.

MRGPRD, sequence (Q8TDS7 whole entry): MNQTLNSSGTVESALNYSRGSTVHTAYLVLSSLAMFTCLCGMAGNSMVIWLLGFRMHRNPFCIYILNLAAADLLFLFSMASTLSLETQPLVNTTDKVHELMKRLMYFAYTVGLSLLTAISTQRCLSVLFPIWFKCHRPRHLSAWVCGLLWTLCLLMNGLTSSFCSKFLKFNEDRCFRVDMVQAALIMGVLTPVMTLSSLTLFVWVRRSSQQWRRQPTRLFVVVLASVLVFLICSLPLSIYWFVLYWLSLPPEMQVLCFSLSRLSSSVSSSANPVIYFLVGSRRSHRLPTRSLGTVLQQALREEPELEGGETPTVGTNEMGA

Row | SMILES | activity as MRGPRD agonists relative to β-ala (MRGPRD) | pathways activated in skin (RNAseq pathway analysis) (wound healing pathways) | Evan's blue dye in the skin (edema, mast cell degranulation) after compound 48/80 (mast cell degranulation [1]; C57BL/6 mice, i.d. pre-treatment for 2 days, then i.d. compound 48/80, FIG. 1 columns 3 and 4) | Evan's blue dye in the skin (48/80's ability to activate mast cells) (mast cell degranulation [1]; mice that lack MRGPRD neurons (specificity control), FIG. 1 columns 5 and 6) | cutaneous mast cell function (mast cell degranulation [1]; wild-type mice (summary statement of Example 1)) | ear swelling (immune response to DNFB) [2] | mast cell degranulation (dermal Evan's blue dye) (mast cell degranulation [3]) | forskolin-stimulated cAMP production (MRGPRD; cells expressing MRGPRD)
1 | NCCCC(=O)O [GABA, 4-aminobutanoic acid] | significantly weaker | – | – | – | – | – | – | –
2 | CC(CN)C(=O)O (stereo not drawn) [β-AIBA, 3-aminoisobutyric acid] | significantly weaker | – | – | – | – | – | – | –
3 | NCCC(=O)O [β-alanine, 3-aminopropanoic acid] | – | activates wound healing pathways | inhibited this effect | no effect | sufficient to suppress | no effect | suppresses | decreases
